Test results reported in patent publication EP4427758A1, “NEW SYNERGISTIC ANTI-INFLAMMATORY, ANTIOXIDANT AND ANTIBACTERIAL ASSOCIATION” (NOOS S.r.l., priority 2023, dated 2024).
≈ marks a conversion by molar mass, not a printed value.

Key:
[1] = NBT assay of antioxidant activity (superoxide scavenging); type: biochemical; conditions: NBT Test (O2^-•); read-out: Scavenging activity of the free radicals IC50
Method: For the inactivation of bacteria by heat, one started at a concentration of 4×10^9 CFU/mL. The bacteria were then centrifuged at 4000 rpm for 10 minutes, the supernatant discarded and replaced with 1 ml of 0.9% NaCl saline solution. The heat inactivation occurred at the temperature of 85°C for 15 minutes.
NBT assay (nitrobluetetrazolium) evaluates the capability of locking the formation of the superoxide radical ^·O2^-; the more ^·O2^- is produced, the more NBT is reduced in formazan. The capability of molecules and compounds to inhibit the NBT reduction by ^·O2^- in presence of β-nicotinammide adenin dinucleotide (β-NADH) and phenazinamethosulfate (PM) is then tested.
The spectrophometric reading was performed by kinetics, by measuring the OD values (λmax 560 nm) immediately and after 15 sec. The absorbance variation was used to calculate the inhibition percentage with respect to the control (solution of EtOH and of the solvent in which the different samples are dissolved).
To this purpose, on previously heat inactivated mixtures of bacteria, 8 serial dilutions were performed according to the scheme reported in figure 1; 20 µL of each dilution were then used in all assays of antioxidant activity according to the protocol indications.

[2] = test system: Haemophilus influenzae DSM 4690; experiment: MIC determination by plate microdilution; type: cell-based; conditions: DSM4690, H. influenzae, 24 hours at 37°C, anaerobiosis
Method: (§1) The supernatant from Streptococcus salivarius K12 was used as reference. To this purpose, the Minimum Inhibitory Concentration (MIC) was evaluated. The pathogen microorganisms were the following ones: Staphylococcus aureus NCTC 6571, Streptococcus pyogenes LMG 21599, Streptococcus pneumoniae DSM 20566, Moraxella chatarralis DSM 9143, Haemophilus influenzae DSM 4690.
(§2) L. reuteri LMG P-27481 and S. salivarius K12 were subcultivated on agar plates from cryopreserved cultures. All pathogens, except for H. influenzae DSM 4690, were cultivated on agar BHI (Brain Heart Infusion, Oxoid). The subculture of H. influenzae DSM 4690 requested the presence of traces of lysed red blood cells in the medium.
(§3) In short, the supernatants were obtained for centrifugation of liquid cultures of L. reuteri LMG P27481 and S. salivarius K12, sterilized by filtration. The aliquots were diluted in series for determining the vital count. The supernatants were diluted in series from 100% to 0.19% (v:v).
(§4) The pathogen strains were dosed optically by using the spectrophotometer at OD600 between 0.08-0.100 and diluted 100 times in Schaedler broth or sterile supernatants (to obtain the concentration of 100%).
(§5) All samples were incubated for 24 hours at 37°C under aerobic conditions for all strains except for H. influenzae DSM 4690 which required anaerobiosis conditions.
(§6) Moreover, a control with serial dilutions of DMSO was performed in order to exclude that the presence of this diluent could exert an inhibitory effect on the pathogens.

[3] = test system: Moraxella chatarralis DSM 9143; experiment: MIC determination by plate microdilution; type: cell-based; conditions: DSM9143, M. chatarralis, 24 hours at 37°C
Method: as §1, §2, §3, §4, §5, §6

[4] = test system: Staphylococcus aureus NCTC 6571; experiment: MIC determination by plate microdilution; type: cell-based; conditions: NCTC6571, S. aureus, 24 hours at 37°C
Method: as §1, §2, §3, §4, §5, §6

[5] = test system: Streptococcus pneumoniae DSM 20566; experiment: MIC determination by plate microdilution; type: cell-based; conditions: DSM20566, S. pneumoniae, 24 hours at 37°C
Method: as §1, §2, §3, §4, §5, §6

[6] = test system: Streptococcus pyogenes LMG 21599; experiment: MIC determination by plate microdilution; type: cell-based; conditions: LMG21599, S. pyogenes, 24 hours at 37°C
Method: as §1, §2, §3, §4, §5, §6

all tested pathogens = experiment: MIC determination, summary over all tested pathogens; type: cell-based; conditions: range over all tested pathogens
Method: as §1, §2, §3, §4
All samples were incubated for 24 hours at 37°C under aerobic conditions for all strains except for H. influenzae DSM 4690 which required anaerobiosis conditions. […]

L. reuteri LMG P-27481 = experiment: Tolerance test: vitality of L. reuteri LMG P-27481 in presence of resveratrol in simulated saliva; type: cell-based, Lactobacillus (Limosilactobacillus) reuteri
Method: The simulated saliva (SS) was prepared with 8 g/l of sodium chloride, 0.19 g/l monobasic potassium phosphate, 2.38 g/l sodium phosphate (pH 6.8) and then sterilized (Alanzi et al., 2018). The cryopreserve stock of L. reuteri LMG P-27481 strain was controlled in order to verify the purity thereof and then cultivated on MRS Broth (De Man Rogosa Sharpe, Difco) under microaerophilic conditions at 37°C for 18 hours. The cultures in MRS broth of L. reuteri LMG P-27481 grown under microaerophilic conditions at 37°C for 18 hours were centrifuged, the supernatant discarded an the pellets were washed with sterile demineralized water. […] A test tube with only SS was used as positive control of survival. L. reuteri LMG P-27481 was analysed according to the standard of Mc Farland in order to obtain a vital load of 3×10^8 CFU/ml in the test tubes. […] Aliquots were collected after 5, 10, 30 and 60 minutes for determining vitality. All plates were incubated for 72 hours at 37°C under anaerobic conditions.

HaCat. cells = type: cell-based
From the text: MTT test is a colorimetric assay which exploits the capability of cells to convert, at mitochondrial level, the bromide of 3-(4,5-dimethylthiazol-2-il)-2,5-diphenyltetrazolium in the related salt, by evaluating the cell viability. The produced salt is solubilized in organic solvent in order to obtain a homogeneous solution in the single well, measurable spectrophotometrically. Besides, the crystal violet assay is based upon the capability of the homonymous […] dye to bind to DNA of the cells in culture and to return in this way a reliable estimation of the number of cells. […] Before colouring, washings in PBS were carried out. 50 µL of dye (MTT (5 mg/mL in PBS); Crystal violet (2,5 mg/mL in MeOH 20%)) were then added to each well and left in incubation at 37°C for 2 hours (MTT) or stirred on tilting plate for 20 min (Crystal violet). The exceeding dye was washed and the dye was solubilized in organic solvent (DMSO) in order to obtain a homogenous solution in the single well, measurable spectrophotometrically. The measurement of absorbance of the single wells was performed in a plate reader, at the wavelength of 570 nm, by normalizing the values with respect to the control.

IL-37 = experiment: Gene expression by real-time PCR in 3D model of in vitro reconstituted skin (EpiDermFT); type: cell-based; conditions: vs control, after 24 hours
From the text: (§7) Evaluation of the gene expression of some cytokines (IL-25, IL-33, IL-37) and of filaggrin (FLG), involucrin (IVL) and loricrin (LOR) in a complex 3D model of in vitro reconstituted skin (EpiDermFT - MATTEK).
(§8) The 3D models of in vitro reconstituted skin constitute optimum systems capable of simulating well the functionalities of a complex organ such as skin and the interactions which are established between numerous cell populations composing it. Then, they try to free from the excessive simplification represented by one single cell line put in culture. The cytokines IL-25 and IL-33 are pro-inflammatory cytokines over-produced by the keratinocytes and by the surface layers of the skin after an insult; on the contrary the cytokine IL-37 is an anti-inflammatory cytokine. At last, the proteins filaggrin (FLG), involucrin (IVL) and loricrin (LOR), are proteins produced by epidermis, fundamental in the constitution of the barrier which protects from external agents and respond to cytokine signals. In particular, during an inflammatory event, the expression of these genes is sub-regulated; on the contrary, an anti-inflammatory state tends to over-express the genes FLG, IVL, LOR.
(§9) The extraction of total RNA was performed by QlAzol Lysis Reagent by following the instructions provided by the firm (Qiagen). The retro-transcription reactions were performed on 4 µg of total RNA by following the instructions provided by the protocol of the kit PROMEGA "GoTaq 2 Step RT qPCR System". The amplification for determining the gene expression, by real-time PCR technique, was performed on BioRad CFX96 machine and the related quantification was performed by the method of 2^-ΔΔCt.

filaggrin (FLG) = experiment: as above; type: cell-based; conditions: vs control
From the text: as §7, §8, §9

involucrin (IVL) = experiment: as above; type: cell-based; conditions: vs control
From the text: as §7, §8, §9

loricrin (LOR) = experiment: as above; type: cell-based; conditions: vs control
From the text: as §7, §8, §9

O=C1O[C@H]([C@@H](O)CO)C(O)=C1O [Ascorbic Acid]
IC50 [1]: 665 ± 26 µM

Oc1ccc(/C=C/c2cc(O)cc(O)c2)cc1 [Resveratrol, 3,5,4'-trihydroxy-trans-stilbene]
MIC [2]: 80 µg/mL (≈ 350 µM)
MIC [3]: 160 µg/mL (≈ 701 µM)
MIC [4]: 160 µg/mL (≈ 701 µM)
MIC [5]: 80 µg/mL (≈ 350 µM)
MIC [6]: 160 µg/mL (≈ 701 µM)
inhibiting concentrations (all tested pathogens): 80 to 160 µg/mL
%S (% of survival of microorganisms) (L. reuteri LMG P-27481; SS + 0.5 mg/ml Resveratrol, T5): 99.9%
%S (% of survival of microorganisms) (L. reuteri LMG P-27481; SS + 0.5 mg/ml Resveratrol, T10): 99.6%
%S (% of survival of microorganisms) (L. reuteri LMG P-27481; SS + 0.5 mg/ml Resveratrol, T30): 99.3%
%S (% of survival of microorganisms) (L. reuteri LMG P-27481; SS + 0.5 mg/ml Resveratrol, T60): 99.2%
%S (% of survival of microorganisms) (L. reuteri LMG P-27481; SS + 1 mg/ml Resveratrol, T5): 99.8%
%S (% of survival of microorganisms) (L. reuteri LMG P-27481; SS + 1 mg/ml Resveratrol, T10): 99.6%
%S (% of survival of microorganisms) (L. reuteri LMG P-27481; SS + 1 mg/ml Resveratrol, T30): 99.6%
%S (% of survival of microorganisms) (L. reuteri LMG P-27481; SS + 1 mg/ml Resveratrol, T60): 99.4%
%S (% of survival of microorganisms) (L. reuteri LMG P-27481; SS + 2.5 mg/ml Resveratrol, T5): 99.9%
%S (% of survival of microorganisms) (L. reuteri LMG P-27481; SS + 2.5 mg/ml Resveratrol, T10): 99.6%
%S (% of survival of microorganisms) (L. reuteri LMG P-27481; SS + 2.5 mg/ml Resveratrol, T30): 99.5%
%S (% of survival of microorganisms) (L. reuteri LMG P-27481; SS + 2.5 mg/ml Resveratrol, T60): 99.2%
%S (% of survival of microorganisms) (L. reuteri LMG P-27481; SS + 5 mg/ml Resveratrol, T5 (5 minutes contact), 3×10^8 CFU/ml): 99.7%
%S (% of survival of microorganisms) (L. reuteri LMG P-27481; SS + 5 mg/ml Resveratrol, T10): 99.5%
%S (% of survival of microorganisms) (L. reuteri LMG P-27481; SS + 5 mg/ml Resveratrol, T30): 99.3%
%S (% of survival of microorganisms) (L. reuteri LMG P-27481; SS + 5 mg/ml Resveratrol, T60): 99.0%
%S (% of survival of microorganisms) (L. reuteri LMG P-27481; SS + 5 mg/ml Resveratrol, T60, listed as resveratrol): higher than 99%
cell count (crystal violet) (HaCat. cells): decrease in vitality and cell count
cell viability (MTT) (HaCat. cells): decrease in vitality
expression of IL-37 (IL-37): under-expression
expression of FLG (filaggrin (FLG)): minimum expression variations
expression of IVL (involucrin (IVL)): minimum expression variations
expression of LOR (loricrin (LOR)): minimum expression variations
